# From paper PMC11721293 (JCI Insight, 2025)
# Test system: VSV-SARS-CoV-2-S pseudovirus
# Assay: microbe, parasite or virus in culture
# Format: cell-based
# Details: for EC50: read-out: EC50
Structure (SMILES),EC50 [µM],Max % [%]
c1ccc(CN(CC2=NCCN2)c2ccccc2)cc1 [NCGC00016613],> 30,
c1ccc2c(c1)Sc1ccccc1N2C[C@H]1CN2CCC1CC2 [NCGC00014679],1.5,100.0
CN(c1nccc(=O)[nH]1)C1CCN(c2nc3ccccc3n2Cc2ccc(F)cc2)CC1 [NCGC00181013],> 30,
CN1CCCC(n2nc(Cc3ccc(Cl)cc3)c3ccccc3c2=O)CC1 (centres unmarked) [NCGC00177979],4.3,96.4
Cc1cccc(CN2CCN([C@@H](c3ccccc3)c3ccc(Cl)cc3)CC2)c1 [NCGC00018296],> 30,54.8
CN(C)CCN(Cc1ccc(Cl)cc1)c1ccccn1 [NCGC00016672],11.1,77.6
Clc1ccc(Cn2c(CN3CCCC3)nc3ccccc32)cc1 [NCGC00015243],> 30,
CC(C)(C(=O)O)c1ccc([C@@H](O)CCCN2CCC(C(O)(c3ccccc3)c3ccccc3)CC2)cc1 [NCGC00015453],> 30,
CN1[C@@H]2CC[C@H]1CC(O[C@@H](c1ccccc1)c1ccc(Cl)cc1)C2 (some centres unmarked) [NCGC00015195],3.1,100.0
CC(C)c1ccc2oc3nc(N)c(C(=O)O)cc3c(=O)c2c1 [NCGC00167472],,59.8
CN(C)CCN(Cc1cccs1)c1ccccn1 [NCGC00015704],> 30,
CN(C)CCOC(c1ccc(Cl)cc1)c1ccccn1 (centres unmarked) [NCGC00166141],26.3,35.5
CC(CN1c2ccccc2Sc2cccnc21)N(C)C (centres unmarked) [NCGC00181101],> 30,
CN(C)CC[C@@H](c1ccc(Br)cc1)c1ccccn1 [NCGC00162100],23.3,59.8
CC(CN(C)C)CN1c2ccccc2S(=O)(=O)c2ccccc21 (centres unmarked) [NCGC00182075],> 30,
O=C(CCCN1CCN(c2ccc(F)cc2)CC1)NC1c2ccccc2CSc2ccccc21 (centres unmarked) [NCGC00183837],> 30,
CN1CCC(=C2c3ccccc3CCc3cccnc32)CC1 [NCGC00182705],> 30,45.5

Structure (SMILES),EC50 [µM],Max % [%]
CN(C)CCCN1c2ccccc2Sc2ccc(Cl)cc21 [NCGC00015273],> 30,
CC(C)(C)c1ccc(C(=O)CCCN2CCC(OC(c3ccccc3)c3ccccc3)CC2)cc1 [NCGC00164603],> 30,
CN(C)CC[C@H](c1ccc(Cl)cc1)c1ccccn1 [NCGC00015227],> 30,
Clc1ccc(C(c2ccc(Cl)cc2)N2CCNCC2)cc1 [NCGC00354584],2,100.0
Cc1ccc(C(=CCN2CCCC2)c2cccc(C=CC(=O)O)n2)cc1 [NCGC00182053],> 30,
CN1CCC(OC(c2ccccc2)c2ccccc2)CC1 [NCGC00016395],5.2,51.1
CN1CCC(=C2c3ccccc3CC(=O)c3sccc32)CC1 [NCGC00015580],> 30,
OC(CCCN1CCCCC1)(c1ccccc1)c1ccccc1 [NCGC00016624],12.8,57.9
COc1ccc(CN(CCN(C)C)c2ncccn2)cc1 [NCGC00178145],> 30,
COc1ccc(CCN2CCC(Nc3nc4ccccc4n3Cc3ccc(F)cc3)CC2)cc1 [NCGC00016913],8.4,79.3
Cc1ccc(/C(=C/CN2CCCC2)c2ccccn2)cc1 [NCGC00024714],> 30,
C[C@@H]1O[C@@]2(CS1)CN1CCC2CC1 [NCGC00485995],17.9,
Cc1ccccc1[C@@H](OCCN(C)C)c1ccccc1 [NCGC00015771],> 30,25.1
CC(C)N1CCN([C@@H](c2ccccc2)c2ccc(Cl)cc2)CC1 [NCGC00347044],3.6,90.9
NC1=NCC2c3ccccc3Cc3ccccc3N12 (centres unmarked) [NCGC00165791],> 100,
CCc1ccc2c(c1)N(CC(C)CN(C)C)c1ccccc1S2.Cl (centres unmarked) [NCGC00014485],2.8,90.9
C[C@@H]1CN(C2CCC(C#N)(c3ccc(F)cc3)CC2)CC[C@]1(C(=O)O)c1ccccc1.Cl (some centres unmarked) [NCGC00016939],> 30,37.9
